Where a name gives a salt, the structure may show the parent alone. Read-outs that look alike come from different tables or passages of the source.
Assays:
[1] = threshold for psychomimetic effects in humans; format: in vivo; settings: worked out from THC threshold and 200 fold psychoactivity
Excerpt: Psychoactive cannabinoids have a variety of pharmacological effects that are evoked through interactions with the CB1 receptors predominantly expressed in the brain. The central nervous system effects that occur after in vivo exposure to HU-210 include euphoria, hypokinesia, hypothermia, anti-nociception, and catalepsy. Hypokinesia, hypothermia, anti-nociception, and catalepsy are the activities that form the basis of the “Tetrad assay” of CB1 mediated activity. […] The threshold for psychomimetic effects of oral THC in humans is in the range of 10-15 mg THC in an adult, i.e from about 0.16 to about 0.25 mg THC/kg body weight for adults of approximately 60 kg (“Cannabis and Cannabinoids, pharmacology, toxicology and therapeutic potential” edited by Grotenhermen and Russo, the Haworth Integrative Healing Press; Chapter 31 pp 345 and 351).

[2] = cited from earlier work
rats [3] = settings: conscious rats; cited from earlier work
rats [4] = settings: 10 μg/kg i.v., cited from earlier work
rat model = settings: cited from earlier work
[5] = i.v.; cited from earlier work
[6] = tested on: intra-ocular pressure (IOP); assay: IOP lowering after topical administration in normotensive rabbits; format: in vivo, New Zealand White albino rabbits; settings: commercially available drugs, topical
Description: New Zealand White albino rabbits weighing 2-2.5 kg were acclimatized in our animal facility for at least a week prior to IOP measurements. Drug, saline and blank-vehicle groups (n=8-12 animals per group) were included. In most experiments, 50 μl drops were applied at 09:00 and measurements were taken 1 hour, 3, 5, and 7 hours later. Baseline IOP was individualized for each animal and time point prior to drug testing. IOP was measured by a Digilab Pneumatonometer, Model 30R. ΔIOP was calculated by subtracting the baseline IOP from IOP value measured after drug application at a corresponding time point. Maximal ΔIOP and area under the ΔIOP×hours curve (AUC) were calculated and averaged for each group. Data of IOP, AUC, blood pressure and toxicity were analyzed by the Wilcoxon-Rank test.

[7] = oral, adult; cited from earlier work

What does the source list for `CCCCCCC(C)(C)c1cc(O)c2c(c1)OC(C)(C)[C@@H]1CC=C(CO)C[C@@H]21` [HU-210, 1,1-dimethylheptyl-(3R,4R)-7-hydroxy-Δ^6-tetrahydrocannabinol]?
maximal tolerated dose (theoretical) [1]: less than 1.25 μg/kg body weight; psychoactivity in animals relative to Δ^9-THC ([2]; in vivo): approximately 200 fold; psychoactivity compared with HU-211 ([2]; series of animal tests): a thousand times more psychoactive; psychoactivity compared with Δ^9-THC ([2]; series of animal tests): a hundred times more psychoactive; bradycardia still present after drug administration (rats [3]): ≥ 8 h; duration of hypotensive effects (rats [3]): 2 h; reduction of mean blood pressure (rats [4]): 57±5 mm Hg; systemic vascular resistance index (rats [4]): without significantly affecting; cardiac index after drug (rats [4]; from 37±1): 23±1 mL/min/100 g; PaCO2 after drug (rat model; from 32±0.7): 45.7±1.6 mmHg; mean arterial blood pressure after drug (rat model; from 142±1): 105±6 mm Hg; heart rate after drug (rat model; from 484±6): 232±18 beats/min; change in cerebral glucose use (rat model; frontal cortex): −19%; cerebral glucose use after drug (rat model; frontal cortex, from 69±1): 55±3 μmol.100 g−1.min-1; change in cerebral glucose use (rat model; occipital cortex): −31%; cerebral glucose use after drug (rat model; occipital cortex, from 60±1): 41±2 μmol.100 g−1.min−1; lowest administered dose at which hypotensive effect is detected [5]: 1 µg/kg

With `CC(C)(C)NC[C@H](O)COc1cccc2c1CCCC2=O` [levobunolol HCl, reference compound] as the compound, how does the “AUC (ΔIOP×hours)” value [6] read?
Its value is 13.3±1.5 mmHg×Hours.

Which “AUC (ΔIOP×hours)” value [6] does the source give for `CC(C)(C)NC[C@H](O)COc1nsnc1N1CCOCC1` [Timolol, reference compound] here?
The value was 7.3±3.0 mmHg×Hours.

Which “threshold for psychomimetic effects” value [7] does the source give for `CCCCCc1cc(O)c2c(c1)OC(C)(C)[C@@H]1CCC(C)=C[C@@H]21` [THC, Δ^9-tetrahydrocannabinol] here?
Its value is 10 to 15 mg.
